Legend:
[1] = Kinetic solubility (Analiza); type: physicochemical; settings: PBS pH 7.4, from 10 mM DMSO stocks
Text: Calculated solubility values in Table 2 have been corrected for background nitrogen present in the DMSO and media.

[2] = target: T1, NIK (Homo sapiens, UniProt Q99558); experiment: DiscoverX scanMAX binding assay; settings: 1 μM
T1 construct: purchased Eurofins (radiometric) / Eurofins DiscoverX scanMAX / Reaction Biology / SignalChem
Procedure, shortened: (§1)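 Single-dose (1 µM) binding screen; 403 WT human kinase panel; readout PoC, lower value = stronger displacement.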

[3] = target: T2, JAK3(JH1domain-catalytic) (Homo sapiens, UniProt P52333); experiment: DiscoverX scanMAX binding assay; settings: 1 μM
T2 construct: JAK3(JH1domain-catalytic); purchased Eurofins (radiometric) / Eurofins DiscoverX scanMAX / Reaction Biology / SignalChem
T2 sequence (P52333 822-1111 limits assumed): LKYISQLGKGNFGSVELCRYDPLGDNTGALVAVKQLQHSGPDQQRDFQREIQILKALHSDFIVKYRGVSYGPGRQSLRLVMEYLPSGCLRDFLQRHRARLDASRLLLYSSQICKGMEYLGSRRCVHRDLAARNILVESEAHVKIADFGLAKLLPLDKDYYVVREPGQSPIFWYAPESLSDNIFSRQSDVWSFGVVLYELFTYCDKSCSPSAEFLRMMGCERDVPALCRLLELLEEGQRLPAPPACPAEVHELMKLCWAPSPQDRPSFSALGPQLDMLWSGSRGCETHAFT
Procedure, shortened: as §1

[4] = target: T3, CDC2L1 (Homo sapiens, UniProt P21127); experiment: DiscoverX scanMAX binding assay; settings: 1 μM
T3 construct: purchased Eurofins (radiometric) / Eurofins DiscoverX scanMAX / Reaction Biology / SignalChem
T3 sequence (P21127 whole entry): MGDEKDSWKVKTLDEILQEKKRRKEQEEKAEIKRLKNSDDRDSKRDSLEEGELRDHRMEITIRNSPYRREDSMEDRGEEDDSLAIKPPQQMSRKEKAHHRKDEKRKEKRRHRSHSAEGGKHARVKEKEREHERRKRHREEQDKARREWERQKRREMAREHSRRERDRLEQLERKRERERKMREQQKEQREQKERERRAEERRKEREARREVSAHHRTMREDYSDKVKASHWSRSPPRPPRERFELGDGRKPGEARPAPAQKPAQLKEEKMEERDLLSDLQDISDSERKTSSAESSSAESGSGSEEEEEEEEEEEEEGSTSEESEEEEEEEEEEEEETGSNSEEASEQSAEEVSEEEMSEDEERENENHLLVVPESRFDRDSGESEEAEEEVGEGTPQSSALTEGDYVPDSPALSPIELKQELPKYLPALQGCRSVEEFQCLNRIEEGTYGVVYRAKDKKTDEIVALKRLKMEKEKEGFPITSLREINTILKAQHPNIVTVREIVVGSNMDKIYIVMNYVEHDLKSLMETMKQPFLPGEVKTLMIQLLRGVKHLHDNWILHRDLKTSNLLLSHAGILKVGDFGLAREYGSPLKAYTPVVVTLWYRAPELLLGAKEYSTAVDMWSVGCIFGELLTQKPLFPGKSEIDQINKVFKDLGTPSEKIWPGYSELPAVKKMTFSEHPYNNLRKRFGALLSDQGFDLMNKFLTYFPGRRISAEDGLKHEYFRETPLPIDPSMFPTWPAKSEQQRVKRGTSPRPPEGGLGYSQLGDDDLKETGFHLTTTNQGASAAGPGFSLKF
Procedure, shortened: as §1

[5] = target: T4, HIPK1 (Homo sapiens, UniProt Q86Z02); experiment: DiscoverX scanMAX binding assay; settings: 1 μM
T4 construct: purchased Eurofins (radiometric) / Eurofins DiscoverX scanMAX / Reaction Biology / SignalChem
Procedure, shortened: as §1

[6] = target: T5, TYK2(JH1domain-catalytic) (Homo sapiens, UniProt P29597); experiment: DiscoverX scanMAX binding assay; settings: 1 μM
T5 construct: TYK2(JH1domain-catalytic); purchased Eurofins (radiometric) / Eurofins DiscoverX scanMAX / Reaction Biology / SignalChem
T5 sequence (P29597 897-1176 limits assumed): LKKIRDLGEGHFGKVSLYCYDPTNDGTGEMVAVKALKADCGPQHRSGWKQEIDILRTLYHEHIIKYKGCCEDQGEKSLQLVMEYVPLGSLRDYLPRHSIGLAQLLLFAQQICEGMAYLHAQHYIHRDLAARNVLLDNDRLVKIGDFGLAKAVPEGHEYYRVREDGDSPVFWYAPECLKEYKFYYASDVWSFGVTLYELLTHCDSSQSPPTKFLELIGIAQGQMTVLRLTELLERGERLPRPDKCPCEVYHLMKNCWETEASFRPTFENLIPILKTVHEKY
Procedure, shortened: as §1

[7] = target: T6, BRAF(V600E) (Homo sapiens, UniProt P15056, V600E); experiment: DiscoverX scanMAX binding assay; settings: 1 μM
T6 construct: purchased Eurofins (radiometric) / Eurofins DiscoverX scanMAX / Reaction Biology / SignalChem
T6 sequence (P15056 whole entry V600E): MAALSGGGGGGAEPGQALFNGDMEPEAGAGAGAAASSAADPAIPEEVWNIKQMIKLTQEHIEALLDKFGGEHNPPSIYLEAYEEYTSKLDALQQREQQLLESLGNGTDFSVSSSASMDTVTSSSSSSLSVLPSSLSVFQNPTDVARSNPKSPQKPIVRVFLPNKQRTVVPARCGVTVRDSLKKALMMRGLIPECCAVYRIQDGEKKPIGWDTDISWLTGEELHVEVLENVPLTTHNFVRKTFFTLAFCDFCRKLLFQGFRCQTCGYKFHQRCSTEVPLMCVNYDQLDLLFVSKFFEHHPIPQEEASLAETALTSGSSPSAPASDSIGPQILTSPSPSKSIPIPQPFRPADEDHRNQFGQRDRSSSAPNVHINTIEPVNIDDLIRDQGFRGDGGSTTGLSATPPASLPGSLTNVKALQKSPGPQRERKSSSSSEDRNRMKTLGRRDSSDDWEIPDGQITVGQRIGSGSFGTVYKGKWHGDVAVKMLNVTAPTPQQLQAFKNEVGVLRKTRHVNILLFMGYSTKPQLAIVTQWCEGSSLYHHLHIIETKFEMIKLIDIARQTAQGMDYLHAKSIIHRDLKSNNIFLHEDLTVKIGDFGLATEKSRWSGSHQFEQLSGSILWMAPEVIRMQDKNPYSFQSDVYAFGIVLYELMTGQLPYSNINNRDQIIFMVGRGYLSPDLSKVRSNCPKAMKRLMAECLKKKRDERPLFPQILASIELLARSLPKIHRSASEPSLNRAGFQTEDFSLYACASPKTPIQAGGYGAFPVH

[8] = target: T7, HASPIN (Homo sapiens, UniProt Q8TF76); experiment: DiscoverX scanMAX binding assay; settings: 1 μM
T7 construct: purchased Eurofins (radiometric) / Eurofins DiscoverX scanMAX / Reaction Biology / SignalChem
T7 sequence (Q8TF76 whole entry): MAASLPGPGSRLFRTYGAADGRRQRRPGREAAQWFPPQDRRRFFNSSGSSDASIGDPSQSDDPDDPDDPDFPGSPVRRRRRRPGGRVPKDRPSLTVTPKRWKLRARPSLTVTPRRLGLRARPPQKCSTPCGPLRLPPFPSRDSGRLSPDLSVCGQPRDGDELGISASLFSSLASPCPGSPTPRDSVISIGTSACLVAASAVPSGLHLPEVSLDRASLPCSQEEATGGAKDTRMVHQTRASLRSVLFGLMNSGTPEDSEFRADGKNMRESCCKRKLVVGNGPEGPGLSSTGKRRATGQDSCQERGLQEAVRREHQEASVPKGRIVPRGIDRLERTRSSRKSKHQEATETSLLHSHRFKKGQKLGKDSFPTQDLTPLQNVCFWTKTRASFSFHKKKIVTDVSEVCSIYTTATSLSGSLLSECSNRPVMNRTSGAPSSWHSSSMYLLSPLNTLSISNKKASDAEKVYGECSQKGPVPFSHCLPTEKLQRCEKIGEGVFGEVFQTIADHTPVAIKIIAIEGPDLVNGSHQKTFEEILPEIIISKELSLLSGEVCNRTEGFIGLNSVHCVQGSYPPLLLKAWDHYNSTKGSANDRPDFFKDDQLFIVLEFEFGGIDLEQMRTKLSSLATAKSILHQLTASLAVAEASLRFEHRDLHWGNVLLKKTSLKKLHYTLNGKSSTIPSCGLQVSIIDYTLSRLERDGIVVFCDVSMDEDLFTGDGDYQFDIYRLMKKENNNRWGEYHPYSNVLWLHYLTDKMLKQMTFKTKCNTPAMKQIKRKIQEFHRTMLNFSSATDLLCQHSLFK
Procedure, shortened: as §1

[9] = target: T8, CDK11 (Homo sapiens, UniProt Q9BWU1); experiment: DiscoverX scanMAX binding assay; settings: 1 μM
T8 construct: purchased Eurofins (radiometric) / Eurofins DiscoverX scanMAX / Reaction Biology / SignalChem
T8 sequence (Q9BWU1 whole entry): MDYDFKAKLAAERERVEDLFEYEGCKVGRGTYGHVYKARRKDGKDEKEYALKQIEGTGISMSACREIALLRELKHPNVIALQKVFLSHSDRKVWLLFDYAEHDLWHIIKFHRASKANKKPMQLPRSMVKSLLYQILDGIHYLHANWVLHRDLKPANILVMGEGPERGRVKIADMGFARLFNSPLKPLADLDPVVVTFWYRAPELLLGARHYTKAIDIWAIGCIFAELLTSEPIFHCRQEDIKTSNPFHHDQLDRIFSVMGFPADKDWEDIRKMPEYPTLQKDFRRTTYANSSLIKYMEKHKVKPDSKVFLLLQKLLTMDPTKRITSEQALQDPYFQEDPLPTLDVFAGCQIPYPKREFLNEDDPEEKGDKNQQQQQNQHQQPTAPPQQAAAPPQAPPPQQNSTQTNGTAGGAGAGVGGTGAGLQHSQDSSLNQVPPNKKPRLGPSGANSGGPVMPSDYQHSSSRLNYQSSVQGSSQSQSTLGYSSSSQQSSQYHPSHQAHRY
Procedure, shortened: as §1

[10] = target: T9, CHEK2 (Homo sapiens, UniProt O96017); experiment: DiscoverX scanMAX binding assay; settings: 1 μM
T9 construct: purchased Eurofins (radiometric) / Eurofins DiscoverX scanMAX / Reaction Biology / SignalChem
T9 sequence (O96017 whole entry): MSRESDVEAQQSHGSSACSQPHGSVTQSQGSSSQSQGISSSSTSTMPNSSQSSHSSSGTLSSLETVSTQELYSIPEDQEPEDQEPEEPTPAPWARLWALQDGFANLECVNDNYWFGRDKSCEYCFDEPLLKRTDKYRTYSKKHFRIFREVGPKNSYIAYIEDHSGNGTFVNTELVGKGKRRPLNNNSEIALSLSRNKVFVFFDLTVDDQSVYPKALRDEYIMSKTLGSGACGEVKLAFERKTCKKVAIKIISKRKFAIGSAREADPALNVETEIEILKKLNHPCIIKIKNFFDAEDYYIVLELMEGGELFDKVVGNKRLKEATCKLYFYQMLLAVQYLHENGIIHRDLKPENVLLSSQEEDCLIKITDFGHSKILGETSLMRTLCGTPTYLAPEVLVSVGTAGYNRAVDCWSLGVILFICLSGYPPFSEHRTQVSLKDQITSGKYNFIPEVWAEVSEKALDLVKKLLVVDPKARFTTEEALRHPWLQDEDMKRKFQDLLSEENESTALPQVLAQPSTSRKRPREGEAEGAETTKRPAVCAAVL
Procedure, shortened: as §1

[11] = system: TTBK1; set-up: method as in earlier work; settings: screened at 1 μM; cited from earlier work
[12] = system: TTBK2; set-up: method as in earlier work; settings: screened at 1 μM; cited from earlier work
[13] = system: TTBK1; set-up: method as in PMID 33944571; settings: read-out: TTBK1 IC50 (Biogen biochemical assay); cited from earlier work
[14] = target: T10, RIPK5 (Homo sapiens, UniProt Q6XUX3); experiment: DiscoverX scanMAX binding assay; settings: 1 μM
T10 construct: purchased Eurofins (radiometric) / Eurofins DiscoverX scanMAX / Reaction Biology / SignalChem
Procedure, shortened: as §1

T1 sequence (Q99558 whole entry): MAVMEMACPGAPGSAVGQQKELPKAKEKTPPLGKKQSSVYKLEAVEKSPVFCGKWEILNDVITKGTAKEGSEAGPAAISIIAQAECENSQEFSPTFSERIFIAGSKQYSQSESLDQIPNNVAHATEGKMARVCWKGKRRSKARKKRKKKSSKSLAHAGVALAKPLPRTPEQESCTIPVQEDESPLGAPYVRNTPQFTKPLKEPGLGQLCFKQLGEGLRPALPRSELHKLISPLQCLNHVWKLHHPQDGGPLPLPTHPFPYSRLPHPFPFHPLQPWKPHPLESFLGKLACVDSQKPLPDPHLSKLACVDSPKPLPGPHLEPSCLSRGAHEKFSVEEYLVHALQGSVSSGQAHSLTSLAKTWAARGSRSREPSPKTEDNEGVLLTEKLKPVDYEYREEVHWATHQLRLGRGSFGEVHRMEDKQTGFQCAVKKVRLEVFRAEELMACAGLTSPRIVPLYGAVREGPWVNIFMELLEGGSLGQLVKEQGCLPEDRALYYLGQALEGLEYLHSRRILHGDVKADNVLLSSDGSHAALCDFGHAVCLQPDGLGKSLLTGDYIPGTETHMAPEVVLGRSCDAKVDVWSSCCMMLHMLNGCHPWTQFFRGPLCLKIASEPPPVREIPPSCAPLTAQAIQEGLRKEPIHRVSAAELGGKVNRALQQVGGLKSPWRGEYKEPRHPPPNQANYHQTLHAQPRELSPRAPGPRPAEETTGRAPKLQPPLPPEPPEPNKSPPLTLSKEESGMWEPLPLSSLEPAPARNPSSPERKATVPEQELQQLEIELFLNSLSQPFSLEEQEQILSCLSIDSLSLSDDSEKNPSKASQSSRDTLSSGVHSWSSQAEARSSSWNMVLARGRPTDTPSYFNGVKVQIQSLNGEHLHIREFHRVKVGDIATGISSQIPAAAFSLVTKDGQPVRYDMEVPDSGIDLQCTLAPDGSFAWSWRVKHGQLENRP

CC(C)(O)C#Cc1ccc2[nH]cc(-c3ccnc(N)n3)c2c1 [Compound 3]
Kinetic solubility [1]: 133 µM
NIK % control at 1000nM [2]: 9.4 % control
JAK3(JH1domain-catalytic) % control at 1000nM [3]: 1.8 % control
CDC2L1 % control at 1000nM [4]: 4.3 % control
HIPK1 % control at 1000nM [5]: 9.4 % control
TYK2(JH1domain-catalytic) % control at 1000nM [6]: 6.3 % control
BRAF(V600E) % control at 1000nM [7]: 6.5 % control

CC(C)(O)C#Cc1ccc2[nH]c3c(c2c1)-c1nc(N)ncc1CC3 [Compound 1]
HASPIN % control at 1000nM [8]: 0.3 % control
CDK11 % control at 1000nM [9]: 4.7 % control
CHEK2 (CHK2) % control at 1000nM / DiscoverX PoC value [10]: 7.9 % control

CC(C)(O)C#Cc1ccc2[nH]c3c(c2c1)-c1nc(N)ncc1CCC3 [AMG28, reference compound]
TTBK1 activity remaining [11]: 8%
TTBK2 activity remaining [12]: 12%
RIPK5 % control at 1000nM / DiscoverX PoC value [14]: 2.2 % control
